Results reported in patent US9481636B2, “N-benzylaniline derivative and uses thereof” (Nanjing Medical University, priority 2011, dated 2016).

These compounds were tested on OGD-injuried neurons (primary cortical neurons) (assay: Cell viability assay: LDH release by OGD-injured primary cortical neurons). Settings: Mus musculus, Primary cortical neuron; drug concentration 10^−6 M/L; OGD 2 hours, LDH after 8 hours.
Type: cell-based, mice
Procedure: After primary neurons were cultured for 9 days, the medium was replaced by DMEM high glucose medium containing 1% FBS, serum-starved overnight and then washed twice with OGD culture solution. This OGD culture solution contains DMEM medium, 1% FBS, 1% penicillin/streptomycin and B27, and contains no sugar. Then, the primary neurons were incubated with the test drugs for 30 minutes, OGD culture solution was added into an anaerobic tank and oxygen-deprived for 2 hours. The OGD culture solution was discarded, and replaced by oxygen-saturated DMEM medium containing 1% FBS, 1% penicillin/streptomycin and B27. After 8 hours the culture solution was collected to measure LDH level.
After the primary cortical neurons were treated with various processes, neuronal culture solution in six-well plates was pipetted to a 1.5 mL plastic centrifuge tube; cells were washed three times with PBS solution and each well was added PBS 1000 μl. The cells were freezed and thawed repeated for three times, centrifuged at 12000′ g for 5 minutes at 4° C., and the supernatant was removed for use. The activity of LDH enzyme was determined with 50 μl culture solution and 25 μl supernatant using lactate dehydrogenase kit.
Protective Effects of the Objective Compounds Against Primary Cortical Neuronal Injury Cultured In Vitro (See Table 2)

| SMILES | inhibition at 1 µM [%] |
| --- | --- |
| CC(Nc1ccc(C(=O)O)c(O)c1)c1cc(Br)ccc1O (centres unmarked) [ZL006-15, 2-hydroxy-4-[1-(2-hydroxy-5-bromo-phenyl)]ethylaminobenzoic acid] | 28.6 |
| CC1(C)C2CCC1(C)C(OC(=O)c1ccc(NCc3cc(Cl)cc(Cl)c3O)c(Cl)c1O)C2 (centres unmarked) [ZL006-17, bornyl-2-hydroxy-3-chloro-4-(2-hydroxy-3,5-dichlorobenzyl)aminobenzoate] | 48.2 |
| CC(=O)Oc1c(C(=O)OC2CC3CCC2(C)C3(C)C)ccc(NCc2cc(Cl)cc(Cl)c2O)c1Cl (centres unmarked) [ZL006-19, bornyl-2-acetyloxy-3-chloro-4-(2-hydroxy-3,5-dichlorobenzyl)aminobenzoate] | 23.9 |
| COc1c(C(=O)OC2CC3CCC2(C)C3(C)C)ccc(NCc2cc(Cl)cc(Cl)c2O)c1Cl (centres unmarked) [ZL006-26, bornyl-2-methoxy-3-chloro-4-(2-hydroxy-3,5-dichlorobenzyl)aminobenzoate] | 35.4 |
| CCCC(=O)Oc1cc(NCc2cc(Br)cc(Cl)c2O)ccc1C(=O)OC1CC2CCC1(C)C2(C)C (centres unmarked) [ZL006-44, bornyl-2-butyryloxy-4-(2-hydroxy-3-chloro-5-bromobenzyl)aminobenzoate] | 43.5 |
| CC1(C)C2CCC1(C)C(OC(=O)c1ccc(NCc3cc(C(F)(F)F)cc(Cl)c3O)cc1O)C2 (centres unmarked) [ZL006-47, bornyl-2-hydroxy-4-(2-hydroxy-3-chloro-5-trifluoromethylbenzyl)aminobenzoate] | 84.2 |
| CC1(C)C2CCC1(C)C(OC(=O)c1cc(NCc3cc(C(F)(F)F)cc(Cl)c3O)ccc1O)C2 (centres unmarked) [ZL006-48, bornyl-2-hydroxy-5-(2-hydroxy-3-chloro-5-trifluoromethylbenzyl)aminobenzoate] | 21.1 |
| COc1cc(NCc2cc(C(F)(F)F)cc(Cl)c2O)ccc1C(=O)OC1CC2CCC1(C)C2(C)C (centres unmarked) [ZL006-49, bornyl-2-methoxy-4-(2-hydroxy-3-chloro-5-trifluoromethylbenzyl)aminobenzoate] | 32.6 |
| CCCCOc1cc(NCc2cc(C(F)(F)F)cc(Cl)c2O)ccc1C(=O)OC1CC2CCC1(C)C2(C)C (centres unmarked) [ZL006-50, bornyl-2-n-butoxy-4-(2-hydroxy-3-chloro-5-trifluoromethylbenzyl)aminobenzoate] | 40.2 |
| CC(=O)Oc1cc(NCc2cc(C(F)(F)F)cc(Cl)c2O)ccc1C(=O)OC1CC2CCC1(C)C2(C)C (centres unmarked) [ZL006-51, bornyl-2-acetyloxy-4-(2-hydroxy-3-chloro-5-trifluoromethylbenzyl)aminobenzoate] | 66.3 |

Same assay, conditions: drug concentration 10^−6 M/L; OGD 2 hours, LDH after 8 hours

| SMILES | Inhibition of LDH release (%) |
| --- | --- |
| CC1(C)C2CCC1(C)C(OC(=O)c1cc(NCc3cc(Cl)cc(Cl)c3O)ccc1O)C2 (centres unmarked) [ZL006-01, bornyl-2-hydroxy-5-(2-hydroxy-3,5-dichlorobenzyl) aminobenzoate] | 2.3 |
| CC(=O)Oc1ccc(NCc2cc(Cl)cc(Cl)c2O)cc1C(=O)OC1CC2CCC1(C)C2(C)C (centres unmarked) [ZL006-02, bornyl-2-acetyloxy-5-(2-hydroxy-3,5-dichlorobenzyl) aminobenzoate] | 21.4 |
| CC1(C)C2CCC1(C)C(OC(=O)c1cc(NCc3cc(Cl)ccc3O)ccc1O)C2 (centres unmarked) [ZL006-03, bornyl-2-hydroxy-5-(2-hydroxy-5-chlorobenzyl) aminobenzoate] | 17.8 |
| CC1(C)C2CCC1(C)C(OC(=O)c1cc(NCc3cc(Br)ccc3O)ccc1O)C2 (centres unmarked) [ZL006-04, bornyl-2-hydroxy-5-(2-hydroxy-5-bromobenzyl) aminobenzoate] | 26.9 |
| CC(=O)Oc1cc(NCc2cc(F)cc(Cl)c2O)ccc1C(=O)OC1CC2CCC1(C)C2(C)C (centres unmarked) [ZL006-07, bornyl-2-acetyloxy-4-(2-hydroxy-3-chloro-5-fluorobenzyl) aminobenzoate] | 20.7 |
| CC1(C)C2CCC1(C)C(OC(=O)c1ccc(NCc3cc(F)cc(Cl)c3O)cc1O)C2 (centres unmarked) [ZL006-08, bornyl-2-hydroxy-4-(2-hydroxy-3-chloro-5-fluorobenzyl) aminobenzoate] | 50.4 |
| CN(Cc1cc(Cl)cc(Cl)c1O)c1ccc(C(=O)O)c(O)c1 [ZL006-09, 2-hydroxy-4-[N-(2-hydroxy-3,5-dichlorobenzyl)-N-methyl]aminobenzoic acid] | 29.5 |
| CC(=O)Oc1cc(N(Cc2cc(Cl)cc(Cl)c2O)C(C)=O)ccc1C(=O)O [ZL006-10, 2-acetyloxy-4-[N-(2-hydroxy-3,5-dichlorobenzyl)-N-acetyl]aminobenzoic acid] | 42.3 |
| COC(=O)c1cc(N(C)Cc2cc(F)cc(Cl)c2O)ccc1O [ZL006-11, methyl 2-hydroxy-5-[N-(2-hydroxy-3-chloro-5-fluorobenzyl)-N-methyl]aminobenzoate] | 41.1 |
| CN(Cc1cc(Cl)cc(Cl)c1O)c1ccc(O)c(C(=O)O)c1 [ZL006-12, 2-hydroxy-5-[N-(2-hydroxy-3,5-dichlorobenzyl)-N-methyl]aminobenzoic acid] | 15.1 |
| CCOC(=O)c1ccc(N(C)Cc2cc(Cl)cc(Cl)c2O)cc1C(=O)OCC [ZL006-13, diethyl 4-[N-(3,5-dichloro-2-hydroxybenzyl)-N-methyl]aminophthalate] | 31.4 |
| CC(Nc1ccc(C(=O)O)c(O)c1)c1cc(Cl)ccc1O (centres unmarked) [ZL006-14, 2-hydroxy-4-[1-(2-hydroxy-5-chlorophenyl)]-ethylaminobenzoic acid] | 19.9 |
| CC(=O)Oc1cc(NCc2cc(Cl)cc(Cl)c2O)c(Cl)cc1C(=O)OC1CC2CCC1(C)C2(C)C (centres unmarked) [ZL006-18, bornyl-2-acetyloxy-4-(2-hydroxy-3,5-dichlorobenzyl) amino-5-chlorobenzoate] | 41.5 |
| COc1cc(NCc2cc(Cl)cc(Cl)c2O)ccc1C(=O)OC1CC2CCC1(C)C2(C)C (centres unmarked) [ZL006-20, bornyl-2-methoxy-4-(2-hydroxy-3,5-dichlorobenzyl) aminobenzoate] | 11.1 |
| CCCCOc1cc(NCc2cc(Cl)cc(Cl)c2O)ccc1C(=O)OC1CC2CCC1(C)C2(C)C (centres unmarked) [ZL006-21, bornyl-2-n-butoxy-4-(2-hydroxy-3,5-dichlorobenzyl) aminobenzoate] | 6.2 |
| CCCCCCOc1cc(NCc2cc(Cl)cc(Cl)c2O)ccc1C(=O)OC1CC2CCC1(C)C2(C)C (centres unmarked) [ZL006-22, bornyl-2-n-hexyloxy-4-(2-hydroxy-3,5-dichlorobenzyl) aminobenzoate] | 2.5 |
| CCCC(=O)Oc1cc(NCc2cc(Cl)cc(Cl)c2O)ccc1C(=O)OC1CC2CCC1(C)C2(C)C (centres unmarked) [ZL006-23, bornyl-2-butyryloxy-4-(2-hydroxy-3,5-dichlorobenzyl) aminobenzoate] | 18.7 |
| CCCCCC(=O)Oc1cc(NCc2cc(Cl)cc(Cl)c2O)ccc1C(=O)OC1CC2CCC1(C)C2(C)C (centres unmarked) [ZL006-24, bornyl-2-hexanoyloxy-4-(2-hydroxy-3,5-dichlorobenzyl) aminobenzoate] | 31.2 |
| COc1cc(NCc2cc(Cl)cc(Cl)c2O)c(Cl)cc1C(=O)OC1CC2CCC1(C)C2(C)C (centres unmarked) [ZL006-25, bornyl-2-methoxy-4-(2-hydroxy-3,5-dichlorobenzyl) amino-5-chlorobenzoate] | 30.6 |
| CN(Cc1cc(Cl)cc(Cl)c1O)c1ccc(C(=O)OC2CC3CCC2(C)C3(C)C)c(O)c1 (centres unmarked) [ZL006-27, bornyl-2-hydroxy-4-[N-(2-hydroxy-3,5-dichlorobenzyl)-N-methyl]aminobenzoate] | 25.3 |
| COc1cc(N(C)Cc2cc(Cl)cc(Cl)c2O)ccc1C(=O)OC1CC2CCC1(C)C2(C)C (centres unmarked) [ZL006-29, bornyl-2-methoxy-4-[N-(2-hydroxy-3,5-dichlorobenzyl)-N-methyl]aminobenzoate] | 41.7 |
| CC(=O)Oc1cc(N(Cc2cc(Cl)cc(Cl)c2O)C(C)=O)ccc1C(=O)OC1CC2CCC1(C)C2(C)C (centres unmarked) [ZL006-31, bornyl-2-acetyloxy-4-[N-(2-hydroxy-3,5-dichlorobenzyl)-N-acetyl]aminobenzoate] | 77.3 |
| CC1(C)C2CCC1(C)C(OC(=O)c1ccc(NCc3cc(Br)cc(Cl)c3O)cc1O)C2 (centres unmarked) [ZL006-39, bornyl-2-hydroxy-4-(2-hydroxy-3-chloro-5-bromobenzyl) aminobenzoate] | 81.2 |
| CC1(C)C2CCC1(C)C(OC(=O)c1cc(NCc3cc(Br)cc(Cl)c3O)ccc1O)C2 (centres unmarked) [ZL006-40, bornyl-2-hydroxy-5-(2-hydroxy-3-chloro-5-bromobenzyl) aminobenzoate] | 41.8 |
| COc1cc(NCc2cc(Br)cc(Cl)c2O)ccc1C(=O)OC1CC2CCC1(C)C2(C)C (centres unmarked) [ZL006-41, bornyl-2-methoxy-4-(2-hydroxy-3-chloro-5-bromobenzyl) aminobenzoate] | 45.5 |
| CCCCOc1cc(NCc2cc(Br)cc(Cl)c2O)ccc1C(=O)OC1CC2CCC1(C)C2(C)C (centres unmarked) [ZL006-42, bornyl-2-n-butoxy-4-(2-hydroxy-3-chloro-5-bromobenzyl) aminobenzoate] | 37.7 |
| CN(Cc1cc(Br)cc(Cl)c1O)c1ccc(C(=O)OC2CC3CCC2(C)C3(C)C)c(O)c1 (centres unmarked) [ZL006-45, bornyl-2-hydroxy-4-[N-(2-hydroxy-3-chloro-5-bromobenzyl)-N-methyl]aminobenzoate] | 67.2 |
| CC(=O)N(Cc1cc(Br)cc(Cl)c1O)c1ccc(C(=O)OC2CC3CCC2(C)C3(C)C)c(O)c1 (centres unmarked) [ZL006-46, bornyl-2-hydroxy-4-[N-(2-hydroxy-3-chloro-5-bromobenzyl)-N-acetyl]aminobenzoate] | 72.5 |
